Experimental data as given in patent US20220324835A1 (Nurix Therapeutics, Inc., priority 2018, published 2022).

Legend:
T-cell [1] = experiment: CD25 cell surface staining on T-cells stimulated with anti-CD3 antibody alone (Biological Example 2); type: cell-based, human; conditions: T-cell, fold change over baseline, primary human total T-cells, read-out: CD25 staining Anti-CD3 stimulation; for fold induction at 1 µM: 1 μM Cbl-b inhibitor; for fold induction at 8 µM: 8 μM Cbl-b inhibitor
T-cell [2] = experiment: CD25 cell surface staining on T-cells co-stimulated with anti-CD3 and anti-CD28 antibody (Biological Example 2); type: cell-based, human; conditions: Homo sapiens, T-cell, fold change over baseline, primary human total T-cells, read-out: CD25 staining Anti-CD3/Anti-CD28 stimulation; for fold induction at 0.3 µM: 0.3 μM Cbl-b inhibitor; for fold induction at 1 µM: 1 μM Cbl-b inhibitor; for fold induction at 4 µM: 4 μM Cbl-b inhibitor
How it was run: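 No assay protocol given; T-cells stimulated with anti-CD3 alone or anti-CD3 plus anti-CD28, with or without Cbl-b inhibitor. Activation read as IL-2 secretion or CD25 surface staining, expressed as fold over baseline from uninhibited cells […].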

Cbl-b [3] = target: T1, Cbl-b (Homo sapiens, UniProt Q13191); experiment: Cbl-b activity assay (Cbl-b inhibition assay), TR-FRET of Cbl-b interaction with UbcH5B-Ub; type: biochemical; conditions: assay buffer with 100 mM NaCl, 60 nM Src kinase; read-out: Cbl-b activity IC50
How it was run: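 TR-FRET readout of Cbl-b binding to Bodipy-fluorescein N-terminally labeled Ub conjugated to UbcH5B C85K, measured with compound present. After compound incubation, 60 nM Src kinase with 1 mM ATP and 5 mM MgCl2 (final) was added for 1.5 h, then a further 1 h incubation; asterisked values used 50 mM NaCl buffer and 30 nM Src.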

Cbl-b [4] = target: T1, Cbl-b; experiment: Cbl-b inhibition assay (Cbl-b activity assay, FRET, Biological Example 1; 100 mM NaCl, 60 nM Src kinase); type: biochemical; conditions: upper bound stated in text lists; read-out: IC50 values in the Cbl-b inhibition assay of Biological Example 1
How it was run: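 FRET read-out: loss of signal marks inhibition. Mix = biotin-Avi-Cbl-b (N-term), Src kinase, UbcH5B-Ub(Bodipy-FL, irreversible conjugate), streptavidin-Tb, assay buffer.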

T-cell [5] = experiment: IL-2 secretion from T-cells stimulated with anti-CD3 antibody alone (Biological Example 2); type: cell-based, human; conditions: T-cell, fold change over baseline, primary human total T-cells, read-out: IL-2 secretion Anti-CD3 stimulation; for fold induction at 1 µM: 1 μM Cbl-b inhibitor; for fold induction at 8 µM: 8 μM Cbl-b inhibitor

T1 sequence (Q13191 36-427): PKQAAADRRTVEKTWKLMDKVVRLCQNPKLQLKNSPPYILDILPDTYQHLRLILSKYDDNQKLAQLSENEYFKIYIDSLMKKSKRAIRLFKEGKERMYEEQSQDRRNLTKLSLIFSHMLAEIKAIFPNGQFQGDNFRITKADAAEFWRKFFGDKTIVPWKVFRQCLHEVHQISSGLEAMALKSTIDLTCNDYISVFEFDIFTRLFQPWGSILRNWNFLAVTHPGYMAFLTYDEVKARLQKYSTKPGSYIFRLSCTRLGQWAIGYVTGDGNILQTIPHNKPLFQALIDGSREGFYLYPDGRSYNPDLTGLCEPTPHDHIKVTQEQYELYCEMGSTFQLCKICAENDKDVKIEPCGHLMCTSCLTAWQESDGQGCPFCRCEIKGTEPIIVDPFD

Row | SMILES | fold induction at 1 µM (T-cell [1]) | fold induction at 8 µM (T-cell [1]) | fold induction at 0.3 µM (T-cell [2]) | fold induction at 1 µM (T-cell [2]) | fold induction at 4 µM (T-cell [2]) | IC50 (Cbl-b [3]) [µM] | IC50 (Cbl-b [4]) [µM] | fold induction at 1 µM (T-cell [5]) | fold induction at 8 µM (T-cell [5])
1 | C[C@H](Cc1nncn1C)c1cccc(N2Cc3c(cc(C(=O)N4C[C@@H](O)C[C@H]4C)cc3C(F)(F)F)C2=O)c1 [Compound 275, 6-((2R,4S)-4-hydroxy-2-methylpyrrolidine-1-carbonyl)-2-(3-((R)-1-(4-methyl-4H-1,2,4-triazol-3-yl)propan-2-yl)phenyl)-4-(trifluoromethyl)isoindolin-1-one] | 0.801 to 1 | > 1 | 1.31 to 1.5 | 1.51 to 1.75 | > 1.76 | < 0.1 | ≤ 0.1 | > 0.201 | > 0.201
2 | Cn1cnnc1CC(C)(C)c1cccc(N2Cc3c(cccc3C(F)(F)F)C2=O)c1 [Compound 300, 2-(3-(2-methyl-1-(4-methyl-4H-1,2,4-triazol-3-yl)propan-2-yl)phenyl)-4-(trifluoromethyl)isoindolin-1-one] | 0.801 to 1 | > 1 | 1.01 to 1.3 | 1.01 to 1.3 | 1.51 to 1.75 | < 0.1 | ≤ 0.1 | > 0.201 | > 0.201
3 | C[C@H](Cc1nncn1C)c1cccc(N2Cc3c(cc(C(=O)N4CC[C@H](O)C4)cc3C(F)(F)F)C2=O)c1 [Compound 274, 6-((S)-3-hydroxypyrrolidine-1-carbonyl)-2-(3-((R)-1-(4-methyl-4H-1,2,4-triazol-3-yl)propan-2-yl)phenyl)-4-(trifluoromethyl)isoindolin-1-one] | 0.801 to 1 | > 1 | 1.01 to 1.3 | 1.01 to 1.3 | 1.31 to 1.5 | < 0.1 | ≤ 0.1 | 0.151 to 0.2 | > 0.201
4 | Cc1cnnn1C[C@@H](C)c1cccc(NC(=O)c2cccc(C(F)(F)F)n2)c1 [Compound 312a, (S)-N-(3-(1-(5-methyl-1H-1,2,3-triazol-1-yl)propan-2-yl)phenyl)-6-(trifluoromethyl)picolinamide] | 0.601 to 0.8 | 0.801 to 1 | < 1 | 1.01 to 1.3 | 1.01 to 1.3 | 0.1 to 0.3 | ≤ 0.3 | 0.051 to 0.1 | 0.151 to 0.2
5 | CCNc1cc([C@H](C)Cc2nncn2C)cc(N2Cc3c(cccc3C(F)(F)F)C2=O)n1 [Compound 360, (R)-2-(6-(ethylamino)-4-(1-(4-methyl-4H-1,2,4-triazol-3-yl)propan-2-yl)pyridin-2-yl)-4-(trifluoromethyl)isoindolin-1-one] | > 1 | > 1 | 1.31 to 1.5 | 1.51 to 1.75 | 1.51 to 1.75 | < 0.1 | ≤ 0.1 | > 0.201 | > 0.201
6 | CC(C)Nc1cc([C@H](C)Cc2nncn2C)cc(N2Cc3c(cccc3C(F)(F)F)C2=O)n1 [Compound 353, 2-{4-[(2R)-1-(4-methyl-4H-1,2,4-triazol-3-yl)propan-2-yl]-6-[(propan-2-yl)amino]pyridin-2-yl}-4-(trifluoromethyl)-2,3-dihydro-1H-isoindol-1-one] | 0.801 to 1 | > 1 | 1.01 to 1.3 | 1.01 to 1.3 | 1.31 to 1.5 | < 0.1 | ≤ 0.1 | 0.101 to 0.15 | > 0.201
7 | COc1ccc(C(=O)Nc2cccc([C@H](C)Sc3nncn3C)c2)nc1C1CC1 [Compound 93, 6-cyclopropyl-5-methoxy-N-[3-[(1S)-1-[(4-methyl-1,2,4-triazol-3-yl)sulfanyl]ethyl]phenyl]pyridine-2-carboxamide] | 0.601 to 0.8 | > 1 | 1.01 to 1.3 | 1.01 to 1.3 | 1.01 to 1.3 | < 0.1 | ≤ 0.1 | < 0.05 | 0.101 to 0.15
8 | Cc1cc(C(=O)Nc2cccc(C3(Cc4nncn4C)COC3)c2)nc(C2CC2)n1 [Compound 336, 2-cyclopropyl-6-methyl-N-(3-(3-((4-methyl-4H-1,2,4-triazol-3-yl)methyl)oxetan-3-yl)phenyl)pyrimidine-4-carboxamide] | > 1 | > 1 | 1.31 to 1.5 | > 1.76 | 1.51 to 1.75 | < 0.1 | ≤ 0.1 | > 0.201 | > 0.201
9 | Cc1ccc(C(=O)Nc2cccc([C@H](C)Sc3nncn3C)c2)nc1C1CC1 [Compound 54, (S)-6-cyclopropyl-5-methyl-N-(3-(1-((4-methyl-4H-1,2,4-triazol-3-yl)thio)ethyl)phenyl)picolinamide] | 0.601 to 0.8 | 0.801 to 1 | 1.01 to 1.3 | 1.01 to 1.3 | 1.01 to 1.3 | < 0.1 | ≤ 0.1 | < 0.05 | 0.151 to 0.2
10 | C[C@H](Cc1nncn1C)c1cccc(N2Cc3c(cccc3C(F)(F)F)C2=O)c1 [Compound 255a, (R)-2-(3-(1-(4-methyl-4H-1,2,4-triazol-3-yl)propan-2-yl)phenyl)-4-(trifluoromethyl)isoindolin-1-one] | 0.601 to 0.8 | > 1 | 1.31 to 1.5 | 1.51 to 1.75 | > 1.76 | < 0.1 | ≤ 0.1 | 0.051 to 0.1 | > 0.201
11 | C[C@H](Cc1nncn1C)c1cccc(N2Cc3c(cc(C(=O)N4CC(O)C4)cc3C(F)(F)F)C2=O)c1 [Compound 276, (R)-6-(3-hydroxyazetidine-1-carbonyl)-2-(3-(1-(4-methyl-4H-1,2,4-triazol-3-yl)propan-2-yl)phenyl)-4-(trifluoromethyl)isoindolin-1-one] | 0.801 to 1 | > 1 | 1.01 to 1.3 | 1.01 to 1.3 | 1.31 to 1.5 | < 0.1 | ≤ 0.1 | 0.051 to 0.1 | 0.151 to 0.2
12 | Cc1cc(C(=O)Nc2cccc([C@H](C)Cc3nocc3C)c2)nc(C2CC2)n1 [Compound 330, (R)-2-cyclopropyl-6-methyl-N-(3-(1-(4-methylisoxazol-3-yl)propan-2-yl)phenyl)pyrimidine-4-carboxamide] | 0.801 to 1 | > 1 | 1.01 to 1.3 | 1.01 to 1.3 | 1.01 to 1.3 | < 0.1 | ≤ 0.1 | 0.051 to 0.1 | > 0.201
13 | Cc1cc(C(=O)Nc2cccc([C@H](C)Cc3nncn3C)c2)nc(C(F)(F)F)n1 [Compound 194, (R)-6-methyl-N-(3-(1-(4-methyl-4H-1,2,4-triazol-3-yl)propan-2-yl)phenyl)-2-(trifluoromethyl)pyrimidine-4-carboxamide] | 0.801 to 1 | > 1 | 1.01 to 1.3 | 1.51 to 1.75 | > 1.76 | < 0.1 | ≤ 0.1 | > 0.201 | > 0.201
14 | C[C@H](Sc1nncn1C)c1cccc(NC(=O)c2ccnc(C3CC3)n2)c1 [Compound 76, 2-cyclopropyl-A-[3-[(1S)-1-[(4-methyl-1,2,4-triazol-3-yl)sulfanyl]ethyl]phenyl]pyrimidine-4-carboxamide] | 0.601 to 0.8 | > 1 | 1.01 to 1.3 | 1.01 to 1.3 | 1.31 to 1.5 | < 0.1 | ≤ 0.1 | < 0.05 | 0.051 to 0.1
15 | Cc1cc(C(=O)Nc2cccc([C@H](C)Sc3nncn3C)c2)nc(C(F)(F)F)c1 [Compound 65, (S)-4-methyl-N-(3-(1-((4-methyl-4H-1,2,4-triazol-3-yl)thio)ethyl)phenyl)-6-(trifluoromethyl)picolinamide] | 0.601 to 0.8 | > 1 | 1.01 to 1.3 | 1.01 to 1.3 | 1.01 to 1.3 | < 0.1 | ≤ 0.1 | < 0.05 | 0.101 to 0.15
